“And” between values parts separate entries of the source, which are not always exact repeats. Equal values may be shown once. “Also recorded” adds a separate entry of the source.
Tests used:
Bifidobacterium bifidum = assay type: cell-based; set-up: key to intensity of the halo / reduction in the microorganisms: Ø: without halo; + → +++: intensity of the halo; + → +++: intensity of the halo; + → +++: intensity of the halo; ↓: reduction in the microorganisms (here by 90%)
B. dentium = assay type: cell-based; set-up: key: Ø: without halo; + → +++: intensity of the halo; + → +++: intensity of the halo; + → +++: intensity of the halo; ↓: reduction in the microorganisms (here by 90%)
B. longum = assay type: cell-based; set-up: key: Ø: without halo; + → +++: intensity of the halo; + → +++: intensity of the halo; + → +++: intensity of the halo; ↓: reduction in the microorganisms (here by 90%)
C. perfringens [1] = assay type: cell-based, Clostridium perfringens
E. coli [2] = assay type: cell-based
Bacteroides fragilis = assay type: cell-based
Citrobacter [3] = assay type: cell-based
C. butyricum [4] = assay type: cell-based, Clostridium butyricum
E. coli [5] = assay type: cell-based; remark: listed apart in the source
B. fragilis = assay type: cell-based, Bacteroides fragilis
C. butyricum [6] = assay type: cell-based, Clostridium butyricum; remark: listed apart in the source
C. perfringens [7] = assay type: cell-based, Clostridium perfringens; remark: listed apart in the source
Citrobacter [8] = assay type: cell-based; remark: listed apart in the source

Compound | colors due to the hydrolysis of the substrate (C. perfringens [1]) | color of the colonies (E. coli [2]) | color of the colonies (Bacteroides fragilis) | color of the colonies (C. perfringens [1]) | color of the colonies (Citrobacter [3]) | relative intensity of the color of the colonies (3 to 0) (E. coli [2]) | relative intensity of the color of the colonies (3 to 0) (C. perfringens [1]) | relative intensity of the color of the colonies (3 to 0) (Citrobacter [3]) | relative intensity of the color of the colonies (3 to 0) (Bacteroides fragilis) | other results
ammoniacal iron citrate [AIC] | – | – | – | – | – | – | – | – | – | bacterial count (Bifidobacterium bifidum): reduction in the number of microorganisms; halo around the colonies (Bifidobacterium bifidum): more intense; also recorded: became visible; intensity of the halo (Bifidobacterium bifidum): + and ++ and +++↓; reduction in the microorganisms (Bifidobacterium bifidum): +++↓; intensity of the halo (B. dentium): + and ++; intensity of the halo (B. longum): + and ++
O=C(O)[C@H]1O[C@@H](Oc2c[nH]c3ccc(Br)c(Cl)c23)[C@H](O)[C@@H](O)[C@@H]1O [X-glucu] | difficult to see | – | – | – | – | – | – | – | – | –
CC(=O)N[C@H]1[C@H](Oc2c[nH]c3ccc(Br)c(Cl)c23)O[C@H](CO)[C@@H](O)[C@@H]1O [X-acglmn] | – | cream-colored | cream-colored | cream-colored; also recorded: very slightly greenish cream-colored | cream-colored | – | – | – | – | –
O=P(O)(O)Oc1c[nH]c2cc(Cl)c(Br)cc12 [Mag-Phos] | difficult to see | cream-colored (darker center); also recorded: pink (pink agar) | cream-pink; also recorded: cream-colored with a brownish halo | – | cream-colored (darker center); also recorded: pink (pink agar) | 2 and 3 | 3 and 2 | 2 and 3 | – | –
5-bromo-4-chloro-3-indolyl-β-D-galactopyranoside [X-Gal] | difficult to see | all blue | – | – | cream-colored | 3 | 3 | – | 2 | halos around the colonies (C. perfringens [1]): blue-gray halos
OC[C@H]1O[C@H](Oc2c[nH]c3cc(Cl)c(Br)cc23)[C@H](O)[C@@H](O)[C@H]1O [Mag-α-Gal] | – | darker or light cream-colored; also recorded: cream-colored | – | cream-colored and pink | cream-colored; also recorded: darker or light cream-colored | – | – | – | – | color of the colonies (C. butyricum [4]): cream-colored; also recorded: darker or light cream-colored
OC[C@H]1O[C@@H](Oc2c[nH]c3ccc(Br)c(Cl)c23)[C@H](O)[C@@H](O)[C@@H]1O [X-glu] | difficult to see | – | – | – | – | – | – | – | – | –
N[C@@H]1CON=C1O [cycloserine] | – | – | – | – | – | – | – | – | – | growth in the presence of antibiotic (E. coli [5]): grow; growth in the presence of antibiotic (B. fragilis): grow; growth in the presence of antibiotic (C. butyricum [6]): grow; growth in the presence of antibiotic (C. perfringens [7]): grow; growth in the presence of antibiotic (Citrobacter [8]): grow
OC[C@@H]1O[C@@H](Oc2c[nH]c3cc(Cl)c(Br)cc23)[C@@H](O)[C@@H](O)[C@H]1O [Mag-Gal] | – | – | – | – | cream-colored and pink | 2 | 3 | 1 and 2 | 1 | growth of the colonies (C. butyricum [4]): did not grow; relative intensity of the color of the colonies (3 to 0) (C. butyricum [4]): 2
O=P(O)(O)Oc1c[nH]c2ccc(Br)c(Cl)c12 [X-Phos] | – | very light greenish cream-colored; also recorded: darker | cream-colored when they are isolated, blue in group; also recorded: deep cream-colored, light brown | greenish cream-colored with a slight blue halo | – | 2 and 3 | 2 | 3 | 1 and 2 | color of the colonies (C. butyricum [4]): cream-colored; also recorded: cream-colored with a very light halo near the colony and then blue at the periphery; growth of the colonies (C. butyricum [4]): did not grow; relative intensity of the color of the colonies (3 to 0) (C. butyricum [4]): 2

From patent US20050148044A1 (priority 1999, published 2005)
